The text below walks through data of patent US12351570B2 (MERCK PATENT GMBH, priority 2018, dated 2025).

The experiment relates to MDA-MB-231 cells. Description: Extracellular lactate production inhibition after 4 h, MDA-MB-231. The settings on record: Homo sapiens, MDA-MB-231.
For orientation: IC50 means the concentration needed to halve the response being measured. A lower IC50 goes with inhibition by little substance. Compound `COc1ccc(S(=O)(=O)N(C)c2ccccc2C#Cc2cnc(C(=O)O)cc2C)c2ncccc12` [Compound 123, 4-methyl-5-{2-[2-(N-methyl5-methoxyquinoline-8-sulfonamido)phenyl]ethynyl}pyridine-2-carboxylic acid] yielded an IC50 of 1000 to 100000 nM.

For the compound `O=C(O)c1ccc(C#Cc2ccccc2NS(=O)(=O)c2cccc(-c3ccccc3)c2)cn1` [Compound 96, 5-[2-(2-{[1,1′-biphenyl]-3-sulfonamido}phenyl)ethynyl]pyridine-2-carboxylic acid], the IC50 fell in the range of 100 to 1000 nM.

On to `O=C(O)c1ccc(C#Cc2ccccc2NS(=O)(=O)N2CCc3ccccc3C2)cn1` [Compound 113, 5-(2-{2-[(1,2,3,4-tetrahydroisoquinoline-2-sulfonyl)amino]phenyl}ethynyl)pyridine-2-carboxylic acid], for which the IC50 was in the range of 1000 to 100000 nM.

As for `Cc1cc(C#Cc2cc(F)ccc2NS(=O)(=O)c2ccc3c(c2)oc2ccccc23)cnc1C(=O)O` [Compound 309, 5-[2-(5-fluoro-2-{8-oxatricyclo[7.4.0.0^2,7]trideca-1(9),2(7),3,5,10,12-hexaene-5-sulfonamido}phenyl)ethynyl]-3-methylpyridine-2-carboxylic acid], the IC50 lay within 100 to 1000 nM.

Consider `COc1cc(C(=O)O)ncc1C#Cc1ccccc1NS(=O)(=O)c1ccc(OC)c2cccnc12` [Compound 169, 4-methoxy-5-{2-[2-(5-methoxyquinoline-8-sulfonamido)phenyl]ethynyl}pyridine-2-carboxylic acid], for which the IC50 lay within 10 to 100 nM.

Consider `CCc1cc(C#Cc2ccccc2NS(=O)(=O)c2cccc3cccnc23)cnc1C(=O)O` [Compound 345, 3-Ethyl-5-[2-(quinoline-8-sulfonylamino)-phenylethynyl]-pyridine-2-carboxylic acid], for which the IC50 is 10 to 100 nM.

Take `COc1cc(C(=O)O)ncc1C#Cc1ccccc1N(C=O)Cc1ccc(-c2ccccc2)cc1` [Compound 192, 5-(2-{2-[N-({[1,1′-biphenyl]-4-yl}methyl)formamido]phenyl}ethynyl)-4-methoxypyridine-2-carboxylic acid]: the IC50 was in the range of 1 to 10 nM.

The compound `CCOc1cc(C(=O)O)ncc1C#Cc1ccccc1NS(=O)(=O)c1ccc(OC)c2cccnc12` [Compound 176, 4-ethoxy-5-{2-[2-(5-methoxyquinoline-8-sulfonamido)phenyl]ethynyl}pyridine-2-carboxylic acid] returned an IC50 of 10 to 100 nM.

In turn, `O=CN(Cc1ccc(-c2ccccc2)nc1)c1ccccc1C#Cc1ccc(C(=O)O)nc1` [Compound 220, 5-[2-(2-{N-[(6-phenylpyridin-3-yl)methyl]formamido}phenyl)-ethynyl]pyridine-2-carboxylic acid] had an IC50 of 100 to 1000 nM.

`O=C(O)c1ccc(C#Cc2ccccc2NS(=O)(=O)c2cccc3c(Cl)ccnc23)cn1` [Compound 266, 5-[2-(4-Chloro-quinoline-8-sulfonylamino)-phenylethynyl]-pyridine-2-carboxylic acid] gave an IC50 of 10 to 100 nM.

`Cc1cc(C#Cc2ccccc2NS(=O)(=O)c2ccc(OC(F)(F)F)c3cccnc23)cnc1C(=O)O` [Compound 382, 3-Methyl-5-[2-(5-trifluoromethoxy-quinoline-8-sulfonylamino)-phenylethynyl]-pyridine-2-carboxylic acid] displayed an IC50 of 10 to 100 nM.

The compound `O=C(O)c1ccc(C#Cc2ccccc2NS(=O)(=O)c2cccc3c2oc2ccccc23)cn1` [Compound 108, 5-[2-(Dibenzofuran-4-sulfonylamino)-phenylethynyl]-pyridine-2-carboxylic acid (5-[2-(2-{8-oxatricyclo[7.4.0.0^2,7]trideca-1(9),2,4,6,10,12-hexaene-6-sulfonamido}phenyl)ethynyl]pyridine-2-carboxylic acid)] returned an IC50 of 10 to 100 nM.

On to `Cc1cccc(S(C)(=O)=Nc2ccccc2C#Cc2ccc(C(=O)O)nc2)c1` (centres unmarked) [Compound 435, 5-[2-(2-{[methyl(3-methylphenyl)oxo-λ6-sulfanylidene]amino}phenyl)ethynyl] pyridine-2-carboxylic acid], for which the IC50 is 1000 to 100000 nM.

For the compound `CCc1cc(C#Cc2ccccc2NS(=O)(=O)c2c(CC)ccc3cccnc23)cnc1C(=O)O` [Compound 375, 3-Ethyl-5-[2-(7-ethyl-quinoline-8-sulfonylamino)-phenylethynyl]-pyridine-2-carboxylic acid], the IC50 lay within 1 to 10 nM.

`O=C(O)c1ccc(C#Cc2ccccc2NS(=O)(=O)c2ccc3occc3c2)cn1` [Compound 297, 5-{2-[2-(1-benzofuran-5-sulfonamido)phenyl]ethynyl}pyridine-2-carboxylic acid] gave an IC50 of 1000 to 100000 nM.

`CCOc1ccc(C#Cc2ccc(C(=O)O)nc2)c(NS(=O)(=O)c2cccc3cccnc23)c1` [Compound 327, 5-[4-Ethoxy-2-(quinoline-8-sulfonylamino)-phenylethynyl]-pyridine-2-carboxylic acid]: the IC50 fell in the range of 1000 to 100000 nM.

For the compound `O=C(O)c1ccc(C#Cc2ccccc2NS(=O)(=O)N2CCC3CCCCC3C2)cn1` (centres unmarked) [Compound 103, 5-(2-{2-[(decahydroisoquinoline-2-sulfonyl)amino]phenyl}ethynyl)pyridine-2-carboxylic acid], the IC50 lay in the range of 100 to 1000 nM.

For the compound `COc1ccc2cccc(S(=O)(=O)Nc3ccccc3C#Cc3ccc(C(=O)O)nc3)c2n1` [Compound 117, 5-{2-[2-(2-methoxyquinoline-8-sulfonamido)phenyl]ethynyl}pyridine-2-carboxylic acid], the IC50 lay in the range of 100 to 1000 nM.

`CCNc1cc(C#Cc2ccccc2NS(=O)(=O)c2cccc3cccnc23)cnc1C(=O)O` [Compound 394, 3-(ethylamino)-5-{2-[2-(quinoline-8-sulfonamido)phenyl]ethynyl}pyridine-2-carboxylic acid] registered an IC50 of 1 to 10 nM.

`O=C(O)c1ccc(C#Cc2ccccc2NS(=O)(=O)c2cc3ccccc3s2)cc1` [Compound 276, 4-{2-[2-(1-benzothiophene-2-sulfonamido)phenyl]ethynyl}benzoic acid] gave a half-maximal inhibitory concentration (IC50) of 1000 to 100000 nM.

For the compound `O=C(O)c1ccc(C#Cc2ccccc2NS(=O)(=O)c2c(F)ccc3c(Cl)ccnc23)cn1` [Compound 320, 5-{2-[2-(4-chloro-7-fluoroquinoline-8-sulfonamido)phenyl]ethynyl}pyridine-2-carboxylic acid], the IC50 is 10 to 100 nM.

Compound `Cc1ccc2cccnc2c1S(=O)(=O)Nc1ccccc1C#Cc1cnc(C(=O)O)c2c1NCCN2` [Compound 415, 8-{2-[2-(7-methylquinoline-8-sulfonamido)phenyl]ethynyl}-1H,2H,3H,4H-pyrido[3,4-b]pyrazine-5-carboxylic acid] showed an IC50 of 100 to 1000 nM.

`COc1ccc(S(=O)(=O)Nc2ccc(Cl)cc2C#Cc2cnc(C(=O)O)c3ccccc23)c(C)c1C` [Compound 400, 4-[5-Chloro-2-(4-methoxy-2,3-dimethyl-benzenesulfonylamino)-phenylethynyl]-isoquinoline-1-carboxylic acid]: the IC50 lay in the range of 10 to 100 nM.

Turning to `COc1cc(C(=O)O)ncc1C#Cc1ccccc1NS(=O)(=O)c1cccc2cccnc12` [Compound 366, 4-methoxy-5-{2-[2-(quinoline-8-sulfonamido)phenyl]ethynyl}pyridine-2-carboxylic acid], the IC50 lay in the range of 10 to 100 nM.

The compound `Cc1cncc2c(S(=O)(=O)Nc3ccccc3C#Cc3ccc(C(=O)O)cc3)cccc12` [Compound 54, 4-{2-[2-(4-methylisoquinoline-8-sulfonamido)phenyl]ethynyl}benzoic acid] displayed a 50% inhibitory concentration (IC50) of 1000 to 100000 nM.

Take `CCOc1ccc(S(=O)(=O)Nc2ccccc2C#Cc2ccc(C(=O)O)nc2)c2ncccc12` [Compound 336, 5-{2-[2-(5-ethoxyquinoline-8-sulfonamido)phenyl]ethynyl}pyridine-2-carboxylic acid]: the IC50 was 10 to 100 nM.

For the compound `Cc1cc(C#Cc2ccccc2NS(=O)(=O)c2c(C)ccc3cccnc23)cnc1C(=O)O` [Compound 102, 3-methyl-5-{2-[2-(7-methylquinoline-8-sulfonamido)phenyl]ethynyl}pyridine-2-carboxylic acid], the IC50 fell in the range of 10 to 100 nM.

Compound `COc1ccc(S(=O)(=O)Nc2ccc(F)cc2C#Cc2ccc(C(=O)O)nc2)c2ncccc12` [Compound 185, 5-{2-[5-fluoro-2-(5-methoxyquinoline-8-sulfonamido)phenyl]ethynyl}pyridine-2-carboxylic acid] returned an IC50 of 10 to 100 nM.

As for `O=C(O)c1ccc(C#Cc2ccccc2NS(=O)(=O)N2CCc3ccccc3C2)cc1` [Compound 90, 4-(2-{2-[(1,2,3,4-tetrahydroisoquinoline-2-sulfonyl)amino]phenyl}ethynyl)benzoic acid], the IC50 lay within 1000 to 100000 nM.

Take `Cc1cc(C#Cc2ccccc2NS(=O)(=O)c2ccc3ccccc3c2)cnc1C(=O)O` [Compound 49, 3-methyl-5-{2-[2-(naphthalene-2-sulfonamido)phenyl]ethynyl}pyridine-2-carboxylic acid]: the IC50 was 100 to 1000 nM.

Compound `O=C(O)c1ccc(C#Cc2ccccc2NS(=O)(=O)c2ccc3ccccc3c2)c(F)c1` [Compound 30, 3-fluoro-4-{2-[2-(naphthalene-2-sulfonamido)phenyl]ethynyl}benzoic acid] displayed a concentration for half-maximal inhibition (IC50) of 100 to 1000 nM.

On to `COc1cc(CN(C=O)c2ccccc2C#Cc2ccc(C(=O)O)nc2)ccc1-c1ccccc1` [Compound 201, 5-(2-{2-[N-({2-methoxy-[1,1′-biphenyl]-4-yl}methyl)formamido]phenyl}-ethynyl)pyridine-2-carboxylic acid], for which the IC50 was 10 to 100 nM.

As for `O=C(O)c1ccc(C#Cc2ccccc2S(=O)(=O)Nc2ccccc2)cn1` [Compound 439, 5-{2-[2-(phenylsulfamoyl)phenyl]ethynyl} pyridine-2-carboxylic acid], the IC50 lay within 1000 to 100000 nM.

As to `COc1ccc(NS(=O)(=O)c2ccc(OC)c3cccnc23)c(C#Cc2ccc(C(=O)O)nc2)c1` [Compound 397, 5-[5-Methoxy-2-(5-methoxy-quinoline-8-sulfonylamino)-phenylethynyl]-pyridine-2-carboxylic acid], the IC50 is 10 to 100 nM.

`CNc1cc(C#Cc2ccccc2NS(=O)(=O)c2ccc(OC)c3cccnc23)cnc1C(=O)N(C)C` [Compound 246, 5-{2-[2-(5-methoxyquinoline-8-sulfonamido)phenyl]ethynyl}-N,N-dimethyl-3-(methylamino)pyridine-2-carboxamide] displayed an IC50 of 1000 to 100000 nM.
